# “And” between values parts separate entries of the source, which are not always exact repeats. Identical values can stand only once.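 All cell lines were grown in 96-well plates and treated with compound for 48 hours. GI50 = concentration required for 50% inhibition of growth. Definition used: TGI = concentration required for complete inhibition of growth.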
# Legend:
# Assay in all cases: NCI-60 cell line screen, 48 h
# COLO 205 colon = test system: COLO 205 colon
# DU-145 prostate = test system: DU-145 prostate
# HCC-2998 colon = test system: HCC-2998 colon
# HOP-92 NSCLC = test system: HOP-92 NSCLC
# KM12 colon = test system: KM12 colon
# MALME-3M melanoma = test system: MALME-3M melanoma
# NCI-H23 lung = test system: NCI-H23 lung
# SNB-19 CNS = test system: SNB-19 CNS
SMILES,GI50 (COLO 205 colon),TGI (COLO 205 colon),GI50 (DU-145 prostate),GI50 (HCC-2998 colon),GI50 (HOP-92 NSCLC),TGI (HOP-92 NSCLC),GI50 (KM12 colon),GI50 (MALME-3M melanoma),TGI (MALME-3M melanoma),GI50 (NCI-H23 lung),TGI (NCI-H23 lung),GI50 (SNB-19 CNS),TGI (SNB-19 CNS),TGI (DU-145 prostate),TGI (HCC-2998 colon),TGI (KM12 colon)
COC1/C=C/C(C)C(C(C)C(OC)C(C)CCC(=O)C(C)C(C/C=C/N(C)C=O)OC)OC(=O)/C=C/C=C(\C)CC(OC)CC2=CC(=O)O[C@H](C2)C(C)C(OC)CC(OC)/C=C/C(C)C(OC)C1 (stereo not given in full),0.0184 µM,0.131 µM,0.123 µM,0.0046 µM,0.0161 µM,0.0489 µM and 0.0313 µM,0.00696 µM,0.0213 µM,0.0582 µM and 0.0315 µM,0.0919 µM,0.499 µM and 0.171 µM,0.052 µM,0.212 µM and 0.0904 µM,–,–,–
CCOC(=O)c1cc2c(n1Cc1cccc(OC)c1)-c1oncc1CCC2,0.78 µM,23.8 µM,2.46 µM,5.58 µM,2.68 µM,49.2 µM,0.58 µM,0.695 µM,> 100 µM,8.68 µM,> 100 µM,25.3 µM,> 100 µM,> 32.5 µM,> 96.4 µM,> 100 µM
O=C(O)C1OC1(c1cccc(Cl)c1)c1ccccc1Cl (stereo not given),–,> 100 µM,–,–,–,94.4 µM,–,–,49.9 µM,–,54.6 µM,–,> 100 µM,77.5 µM,> 100 µM,> 100 µM
COc1ccc2c(=O)cc(-c3ccncc3)oc2c1OC,–,30.8 µM,–,–,–,55.2 µM,–,–,96.9 µM,–,> 100 µM,–,> 100 µM,> 100 µM,48.4 µM,96.2 µM
Cc1ccc(-c2nc(C#N)c(S(=O)(=O)n3nc(C)cc3N)o2)cc1,2.15 µM,4.19 µM,7.8 µM,19.5 µM,2.27 µM,5.71 µM,16.5 µM,1.82 µM,3.54 µM,13.9 µM,37.3 µM,14.1 µM,28.4 µM,20.2 µM,38 µM,33.8 µM
O=c1ccn(C2CC(O)C(CO)O2)c(=O)[nH]1 (stereo not given),> 5000 µM,> 5000 µM,> 5000 µM,> 5000 µM,> 5000 µM,> 5000 µM,> 5000 µM,> 5000 µM,> 5000 µM,> 5000 µM,> 5000 µM,> 5000 µM,> 5000 µM,> 5000 µM,> 5000 µM,> 5000 µM
C#CC1(O)C(COP(=O)(O)OC(COCCCCCCCCCCCCCCCCCC)COP(=O)(O)OCC2OC(n3cc(F)c(=O)[nH]c3=O)CC2O)OC(n2ccc(N)nc2=O)C1O (stereo not given),–,1.99 µM and 6.07 µM,0.274 µM and 0.0722 µM,–,33.4 µM,10.6 µM and > 95.6 µM,–,0.742 µM and 0.202 µM,21.8 µM and 3.51 µM,0.613 µM and 2.28 µM,20.7 µM and 33.1 µM,–,16.7 µM and 15.1 µM,> 100 µM,> 28.4 µM,> 49.8 µM and 17 µM
CCn1cnc(C[C@H](NC(=O)[C@@H](NC(=O)Nc2cc(C(F)(F)F)cc(C(F)(F)F)c2)C(C)C)C(=O)OC)c1,2.61 µM,7.07 µM,2.26 µM,2.27 µM,6.88 µM,> 10 µM,1.89 µM,> 10 µM,> 10 µM,2.69 µM,> 10 µM,1.61 µM,3.19 µM,4.84 µM,5.32 µM,3.9 µM
COc1c(O)cc2oc(-c3ccc(O)cc3)cc(=O)c2c1O,–,> 100 µM,–,–,–,36.8 µM,–,–,> 100 µM,–,> 100 µM,–,> 100 µM,> 100 µM,80.3 µM,> 100 µM
Nc1nc(N)c2nc(CNc3ccc(C(=O)NC(CC(=O)O)C(=O)O)cc3)cnc2n1 (stereo not given),31 µM,> 100 µM,0.682 µM,1.07 µM,> 100 µM,> 100 µM,0.897 µM,> 100 µM,> 100 µM,2.38 µM,> 100 µM,8.39 µM,> 100 µM,> 100 µM,> 100 µM,> 100 µM
O=C(Cn1c(=O)c(-c2ccccc2)nc2ccccc21)Nc1ccc(F)cc1,> 100 µM,> 100 µM,43.4 µM,> 100 µM,22.5 µM,86.2 µM,> 100 µM,43 µM,> 100 µM,> 100 µM,> 100 µM,41.8 µM,> 100 µM,> 100 µM,> 100 µM,> 100 µM
COc1ccc2c(c1)nnn1c3ncccc3c(N=O)c21,0.681 µM and 1.22 µM,2.74 µM,1.82 µM and 2.38 µM,7.23 µM and 1.24 µM,0.0424 µM and 0.117 µM,–,1.03 µM and 3.02 µM,0.769 µM and 1.5 µM,5.77 µM and 5.63 µM,5.17 µM and 1.84 µM,13.5 µM and 6.43 µM,6.28 µM and 11.8 µM,16.2 µM and 34.2 µM,13 µM and 8.09 µM,15.6 µM and 2.79 µM,6.91 µM and 13.5 µM
O=c1cc(-c2ccccc2F)[nH]c2ccc(N3CCCC3)cc12,< 0.001 µM,–,< 0.001 µM,0.0204 µM,–,> 100 µM,< 0.001 µM,–,> 100 µM,0.199 µM,–,< 0.001 µM,0.0725 µM,–,0.455 µM and 0.0546 µM,–
